Assay results published in patent US10214531B2 (Institute for Drug Discovery, LLC, priority 2013, dated 2019).
Structures can show the parent of a compound that is named as a salt.

These compounds were tested against recombinant human AMCase (Homo sapiens, UniProt Q9BZP6) (assay: Human AMCase Activity Assay). Details: recombinant hAMCase, 4-methylumbelliferyl chitobioside substrate, citrate buffer pH 5.2, 37° C., 60 minutes; read-out: Activity (IC50 value key).
Format: biochemical
Description: Human AMCase Activity Assay
The assay was run in the 96-well plate format, each reaction in the total volume of 100 μl. 4-Methylumbelliferyl B-D-N,N′ diacetylchitobioside hydrate was used as a substrate for the enzyme. Upon hydrolysis by AMCase, the substrate releases 4-methylumbelliferyl (4MU), when ionized in basic pH, emits fluorescence of 460 nm.
Briefly, 40 μl of a substrate was added to each well, followed by 10 μl of compound dilution and 50 μl of hAMCase recombinant enzyme solution. The reaction was carried out in citrate buffer, pH 5.2, in the dark, at 37° C. for 60 minutes with shaking.

Sequence of recombinant human AMCase (Q9BZP6 22-476): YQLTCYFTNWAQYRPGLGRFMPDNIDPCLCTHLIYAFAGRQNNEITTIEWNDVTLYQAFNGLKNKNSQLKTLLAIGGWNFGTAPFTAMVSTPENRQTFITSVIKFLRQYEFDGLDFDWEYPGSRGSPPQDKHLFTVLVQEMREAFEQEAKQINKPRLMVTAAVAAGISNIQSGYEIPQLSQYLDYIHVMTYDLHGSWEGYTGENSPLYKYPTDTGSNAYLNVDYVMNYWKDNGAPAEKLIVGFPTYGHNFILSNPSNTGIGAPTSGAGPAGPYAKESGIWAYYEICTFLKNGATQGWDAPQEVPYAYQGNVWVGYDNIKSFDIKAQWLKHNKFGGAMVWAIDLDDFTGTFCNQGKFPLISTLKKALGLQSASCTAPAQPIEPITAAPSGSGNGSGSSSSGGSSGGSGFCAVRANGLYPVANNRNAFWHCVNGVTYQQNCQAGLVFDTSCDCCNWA

IC50	SMILES
< 0.1 µM	Nc1n[nH]c(N2CCC(N(CCc3ccc(Cl)cc3)Cc3ccncc3F)CC2)n1 [Example 119, 1-(3-amino-1H-1,2,4-triazol-5-yl)-N-(4-chlorophenethyl)-N-((3-fluoropyridin-4-yl)methyl)piperidin-4-amine]
> 100 µM	Nc1n[nH]c(N2CCC(CNC(=O)c3cccc(F)c3)CC2)n1 [Example 208, N-((1-(3-amino-1H-1,2,4-triazol-5-yl)piperidin-4-yl)methyl)-3-fluorobenzamide]
0.1 to 1 µM	CC1CN(c2nc(N)n[nH]2)CCC1N(C)CCc1ccc(Cl)cc1 (stereo not shown) [Example 154, 1-(3-amino-1H-1,2,4-triazol-5-yl)-N-(4-chlorophenethyl)-N,3-dimethylpiperidin-4-amine dihydrochloride]
1 to 10 µM	CN(CCc1ccccc1C(F)(F)F)C1CCN(c2nc(N)n[nH]2)CC1 [Example 169, 1-(3-amino-1H-1,2,4-triazol-5-yl)-N-methyl-N-(2-(trifluoromethyl)phenethyl)piperidin-4-amine]
> 100 µM	Nc1n[nH]c(N2CCC(C(=O)NCc3ccc(Cl)c(Cl)c3)CC2)n1 [Example 17, 1-(3-amino-1H-1,2,4-triazol-5-yl)-N-(3,4-dichlorobenzyl)piperidine-4-carboxamide]
> 100 µM	Nc1n[nH]c(N2CCC(c3nnc(-c4ccc(F)cc4)o3)CC2)n1 [Example 43, 5-(4-(5-(4-fluorophenyl)-1,3,4-oxadiazol-2-yl)piperidin-1-yl)-1H-1,2,4-triazol-3-amine]
> 100 µM	Nc1n[nH]c(N2CCN(C(=O)CC(N)c3ccc(Cl)cc3)CC2)n1 (stereo not shown) [Example 40, 3-amino-1-(4-(3-amino-1H-1,2,4-triazol-5-yl)piperazin-1-yl)-3-(4-chlorophenyl)propan-1-one]
> 100 µM	Nc1n[nH]c(N2CCC(CNS(=O)(=O)c3ccc(Br)cc3)CC2)n1 [Example 12, N-((1-(3-amino-1H-1,2,4-triazol-5-yl)piperidin-4-yl)methyl)-4-bromobenzenesulfonamide]
1 to 10 µM	Nc1n[nH]c(N2CCN(CCCc3ccc(Br)cc3)C(CCCO)C2)n1 (stereo not shown) [Example 225, 3-(4-(3-amino-1H-1,2,4-triazol-5-yl)-1-(3-(4-bromophenyl)propyl)piperazin-2-yl)propan-1-ol]
< 0.1 µM	Nc1n[nH]c(N2CCC(N(CCc3ccc(Cl)cc3)Cc3ccc(F)cc3)CC2)n1 [Example 123, 1-(3-amino-1H-1,2,4-triazol-5-yl)-N-(4-chlorophenethyl)-N-(4-fluorobenzyl)piperidin-4-amine]
> 100 µM	Nc1n[nH]c(N2CCN(C(=O)[C@@H](N)Cc3ccc(Cl)cc3Cl)CC2)n1 [Example 75-1, (S)-2-amino-1-(4-(3-amino-1H-1,2,4-triazol-5-yl)piperazin-1-yl)-3-(2,4-dichlorophenyl)propan-1-one dihydrochloride]
10 to 100 µM	Nc1n[nH]c(N2CCN(CCOc3cccc(Cl)c3)CC2)n1 [Example 86, 5-(4-(2-(3-chlorophenoxy)ethyl)piperazin-1-yl)-1H-1,2,4-triazol-3-amine]
> 100 µM	Nc1n[nH]c(N2CCN(CCOc3ccc4[nH]ccc4c3)CC2)n1 [Example 82, 5-(4-(2-((1H-indol-5-yl)oxy)ethyl)piperazin-1-yl)-1H-1,2,4-triazol-3-amine]
1 to 10 µM	CN(CCc1ccc(Cl)c(Cl)c1)C1CCN(c2nc(N)n[nH]2)CC1 [Example 176, 1-(3-amino-1H-1,2,4-triazol-5-yl)-N-(3,4-dichlorophenethyl)-N-methylpiperidin-4-amine]
10 to 100 µM	Cc1cccc(Cl)c1OCCN1CCN(c2nc(N)n[nH]2)CC1 [Example 87, 5-(4-(2-(2-chloro-6-methylphenoxy)ethyl)piperazin-1-yl)-1H-1,2,4-triazol-3-amine]
10 to 100 µM	CN(CCc1cccnc1)C1CCN(c2nc(N)n[nH]2)CC1 [Example 131, 1-(3-amino-1H-1,2,4-triazol-5-yl)-N-methyl-N-(2-(pyridin-3-yl)ethyl)piperidin-4-amine dihydrochloride]
